Measurements as given in the NIST ThermoML archive (doi:10.1007/s10765-012-1383-x).
Numbers after ± are expanded uncertainties.

Details: Fluid (supercritical or subcritical phases), Bellows volumetry

CCCC [butane]
mass density [kg/m3]
Details | 360 K | 400 K | 440 K | 500 K | 550 K | 600 K
50000 kPa | 585.47 ± 0.88 | 556.11 ± 0.88 | 527.49 ± 0.76 | 485.76 ± 0.76 | 452.74 ± 0.76 | 421.67 ± 0.76
60000 kPa | 595.41 ± 0.88 | 567.8 ± 0.88 | 541.19 ± 0.76 | 502.86 ± 0.76 | 472.65 ± 0.76 | 444.04 ± 0.76
70000 kPa | 604.19 ± 0.88 | 578.11 ± 0.88 | 552.99 ± 0.76 | 517.01 ± 0.76 | 489.04 ± 0.76 | 462.25 ± 0.76
80000 kPa | 612.02 ± 0.88 | 587.28 ± 0.88 | 563.51 ± 0.76 | 529.24 ± 0.76 | 503.05 ± 0.76 | 477.92 ± 0.76
90000 kPa | 619.58 ± 0.88 | 595.58 ± 0.88 | 572.93 ± 0.76 | 540.26 ± 0.76 | 515.43 ± 0.76 | 491.53 ± 0.76
100000 kPa | 626.29 ± 0.76 | 603.28 ± 0.76 | 581.43 ± 2.9 | 550.18 ± 2.9 | 526.47 ± 2.9 | 503.41 ± 2.9
120000 kPa | 638.57 ± 0.76 | 617 ± 0.76 | 596.67 ± 2.9 | 567.64 ± 2.9 | 545.49 ± 2.9 | 524.18 ± 2.9
140000 kPa | 649.66 ± 0.76 | 629.05 ± 0.76 | 609.84 ± 2.9 | 582.51 ± 2.9 | 561.8 ± 2.9 | 541.56 ± 2.9
160000 kPa | 659.24 ± 0.76 | 639.75 ± 0.76 | 621.49 ± 2.9 | 595.57 ± 2.9 | 575.61 ± 2.9 | 556.81 ± 2.9
180000 kPa | 668.57 ± 0.76 | 649.69 ± 0.76 | 632.12 ± 2.9 | 607.21 ± 2.9 | 588.11 ± 2.9 | 570.23 ± 2.9
200000 kPa | 676.57 ± 0.76 | 658.6 ± 0.76 | 641.85 ± 2.9 | 617.68 ± 2.9 | 599.35 ± 2.9 | 582.23 ± 2.9

CC(C)C [2-methylpropane]
mass density [kg/m3]
Details | 360 K | 400 K | 440 K | 500 K | 550 K | 600 K
50000 kPa | 568.86 ± 0.76 | 539.91 ± 0.88 | 512.43 ± 0.76 | 472.16 ± 0.76 | 440.41 ± 0.76 | 410.52 ± 0.76
60000 kPa | 579.25 ± 0.88 | 552.31 ± 0.88 | 526.93 ± 0.76 | 489.95 ± 0.76 | 460.74 ± 0.76 | 433.26 ± 0.76
70000 kPa | 588.53 ± 0.88 | 563.06 ± 0.88 | 539.33 ± 0.76 | 504.87 ± 0.76 | 477.5 ± 0.76 | 451.97 ± 0.76
80000 kPa | 597.04 ± 0.88 | 572.73 ± 0.88 | 550.28 ± 0.76 | 517.77 ± 0.76 | 492.04 ± 0.76 | 467.84 ± 0.76
90000 kPa | 604.5 ± 0.88 | 581.56 ± 0.88 | 559.97 ± 0.76 | 529.04 ± 0.76 | 504.6 ± 0.76 | 481.73 ± 0.76
100000 kPa | 611.74 ± 0.76 | 589.43 ± 0.76 | 568.96 ± 2.9 | 539.24 ± 2.9 | 515.83 ± 2.9 | 494.03 ± 2.9
120000 kPa | 624.36 ± 0.76 | 603.57 ± 0.76 | 584.57 ± 2.9 | 557 ± 2.9 | 535.44 ± 2.9 | 515.09 ± 2.9
140000 kPa | 635.51 ± 0.76 | 615.95 ± 0.76 | 598.12 ± 2.9 | 572.25 ± 2.9 | 551.94 ± 2.9 | 532.7 ± 2.9
160000 kPa | 645.68 ± 0.76 | 627.09 ± 0.76 | 610.19 ± 2.9 | 585.63 ± 2.9 | 566.41 ± 2.9 | 548.14 ± 2.9
180000 kPa | 655.03 ± 0.76 | 637.21 ± 0.76 | 621.17 ± 2.9 | 597.32 ± 2.9 | 579.21 ± 2.9 | 561.73 ± 2.9
200000 kPa | 663.47 ± 0.76 | 646.22 ± 0.76 | 631.03 ± 2.9 | 607.94 ± 2.9 | 590.74 ± 2.9 | 573.91 ± 2.9

CCC [propane]
mass density [kg/m3]
Details | 360 K | 400 K | 440 K | 500 K | 550 K | 600 K
50000 kPa | 520.66 ± 0.88 | 488.73 ± 0.88 | 457.63 ± 0.76 | 413.41 ± 0.76 | 380.04 ± 0.76 | 349.68 ± 0.76
60000 kPa | 532.63 ± 0.88 | 503.01 ± 0.88 | 474.47 ± 0.76 | 434.04 ± 0.76 | 403.51 ± 0.76 | 375.39 ± 0.76
70000 kPa | 543.15 ± 0.88 | 515.19 ± 0.88 | 488.72 ± 0.76 | 450.94 ± 0.76 | 422.59 ± 0.76 | 396.1 ± 0.76
80000 kPa | 552.56 ± 0.88 | 525.98 ± 0.88 | 500.95 ± 0.76 | 465.53 ± 0.76 | 438.76 ± 0.76 | 413.71 ± 0.76
90000 kPa | 560.92 ± 0.88 | 535.66 ± 0.88 | 511.84 ± 0.76 | 477.92 ± 0.76 | 452.84 ± 0.76 | 428.88 ± 0.76
100000 kPa | 568.67 ± 0.76 | 544.28 ± 0.76 | 521.48 ± 2.9 | 489.12 ± 2.9 | 464.72 ± 2.9 | 442.26 ± 2.9
120000 kPa | 582.46 ± 0.76 | 559.78 ± 0.76 | 538.35 ± 2.9 | 508.54 ± 2.9 | 485.88 ± 2.9 | 465.07 ± 2.9
140000 kPa | 594.1 ± 0.76 | 573.12 ± 0.76 | 552.91 ± 2.9 | 524.91 ± 2.9 | 503.64 ± 2.9 | 484.26 ± 2.9
160000 kPa | 605.2 ± 0.76 | 584.9 ± 0.76 | 565.72 ± 2.9 | 539.2 ± 2.9 | 518.92 ± 2.9 | 500.33 ± 2.9
180000 kPa | 614.83 ± 0.76 | 595.54 ± 0.76 | 577.17 ± 2.9 | 551.84 ± 2.9 | 532.53 ± 2.9 | 514.78 ± 2.9
200000 kPa | 624.04 ± 0.76 | 605.48 ± 0.76 | 587.69 ± 2.9 | 563.13 ± 2.9 | 544.69 ± 2.9 | 527.68 ± 2.9
